According to patent US20100279944A1, “SUPPRESSION AND TREATMENT OF NEUROPATHIC PAIN” (priority 2006, published 2010):
Where a SMILES comes first, the peptide text is derived from it. [ ]: non-standard residue; d: D form.

How the values were obtained:
[1] = Recovery, side effects and body weight of SCI rats after peptide treatment; format: in vivo, rat; conditions: 200 μg/kg i.v., six bolus doses after SCI
Protocol: Seventeen individually housed male Wistar rats (Charles River, St. Constant, Quebec, 250-320 g) were used to assess mechanical allodynia and hind-limb locomotion. Males were used in these studies to avoid the confounding variable of hormonal cycles on the assessments of neuropathic pain. All protocols were carried out in accordance with the guidelines set forth by the Canadian Guide to Care and Use of Experimental Animals. All experiments conformed to international guidelines on the ethical use of animals and minimized the number of animals used and their suffering. All rats received pre-operative medication and halothane anesthesia for surgical interventions to accomplish clip compression spinal cord injury (SCI), as described previously (Gris et al., (2004), J. Neurosci., v. 24, pp. 4043-4051; Weaver et al., (2001), J. Neurotrauma, v. 18, pp. 1107-1119). A dorsal laminectomy was performed to expose the 12th thoracic (T12) spinal cord segment. The cord was injured by clip compression for 60 sec without disrupting the dura or adjacent dorsal roots. A modified aneurysm clip (Toronto Western Research Institute, University of Toronto, Toronto, Ontario, Canada) calibrated at 35 g was used at the T12 segment to produce a moderate injury. The rats received postoperative care as described previously (Gris, supra). […]

[2] = Mathison et al., 1997; cited from earlier work

Row | Compound | side effects of treatment [1] | lowest dose showing biological effects [2] [μg/kg]
1 | N[C@H](Cc1ccccc1)C(=O)N[C@H](CC(=O)O)C(=O)NCC(=O)O [fdG, D-phenylalanine-D-aspartic acid-Glycine] (H-[dF]-[dD]-Gly-OH) | No overt side effects | 
2 | SGP-T: submandibular gland peptide T; amino acid sequence TDIFEGG |  | 1
